# Test results reported in patent publication US20150203517A1, “Prodrugs of Compounds that Enhance Antifungal Activity and Compositions of Said Prodrugs” (priority 2014, published 2015).
# Structures can show the parent of a compound that is named as a salt. Where two headings read alike, the source gives them in different places.
# Experiment: Saline solubility at 1.00 mg/mL and 0.50 mg/mL (with pH by indicator paper)
# Format: physicochemical
# Conditions: for pH at 1.00 mg/mL of MGCD290 in saline: final concentration of hydroxamate 1 1.00 mg/mL, pH indicator paper; for solubility at 1 h: saline or isotonic, thermodynamic from solid, centrifuged, soluble = no precipitate formed
# Procedure: Assays were performed to determine the saline solubility at 1.00 and 0.50 mg/ml and the stability of certain of the prodrug compounds of Examples 1-111. The following procedures were used.
# Step 1. Sample preparation. An amount of the compound sample was precisely weighed to correspond to around 5 mg of the hydroxamate of compound 1, taking into account the mass of the leaving group and the salt factor if applicable. The sample was placed in a 16×125 mm glass screw cap tube. Saline was added so that the final concentration of hydroxamate 1 was 1.00 mg/mL. The pH was measured with pH indicator paper. The tube was shaken for 1 hour on a Vortex apparatus then centrifuged at 3000 rpm (1800 rcf) for 5 minutes. If the compound example was soluble (no precipitate formed) the procedure continued to step 2. If a precipitate formed then the sample was diluted with saline so that the final concentration of the hydroxamate of compound 1 was 0.50 mg/mL, and the shaking and centrifuging steps were repeated. If the compound example was soluble (no precipitate formed) the procedure continued to step 2. If a precipitate formed the sample was discarded. Step 2. HPLC analysis. A 500 μL aliquot of a sample solution prepared according to Step 1 was taken up into a 1.5 mL injection vial to which was added 500 μL of saline. The vial was shaken on a Vortex apparatus, injected into the HPLC instrument (UV detection, zero time point) and the retention time and purity of the sample compound were determined. The injection was repeated after 6 hours and 24 hours, and a comparison was made of the retention time, peak areas and level of degradation (if any) using the GDADI50 method.
# [1] = 0.50 mg/mL as hydroxamate 1, shaken 1 hour, read-out: Soluble at 0.5 mg/mL of MGCD290 (Y/N)
# [2] = 1.00 mg/mL as hydroxamate 1, shaken 1 hour, read-out: Soluble at 1.00 mg/mL of MGCD290 (Y/N)
pH at 1.00 mg/mL of MGCD290 in saline,solubility at 1 h [1],solubility at 1 h [2],Structure (SMILES)
4.5-5,< 500 µg/mL,< 1000 µg/mL,COCCOCC(=O)NCCC[C@H](NC(=O)COCCOC)C(=O)NCCC(=O)ONC(=O)Cc1ccc(CCCCc2ccccc2)cc1 [Compound 158]
4.5-5,< 500 µg/mL,< 1000 µg/mL,COCCOCCOCCOCCOCC(=O)N[C@@H](C)CC(=O)ONC(=O)Cc1ccc(CCCCc2ccccc2)cc1 [Compound 88]
4.5-5,< 500 µg/mL,< 1000 µg/mL,COCCC(=O)NCC[C@H](NC(=O)CCOC)C(=O)NCCC(=O)ONC(=O)Cc1ccc(CCCCc2ccccc2)cc1 [Compound 152]
4.5-5,< 500 µg/mL,< 1000 µg/mL,"CC(C)NC(=O)ONC(=O)Cc1ccc(CCCCc2ccccc2)cc1 [Compound 73, N-(Isopropylcarbamoyloxy)-2-(4-(4-phenylbutyl)phenyl)acetamide]"
4.5-5,,> 1000 µg/mL,COCCOCCOCCOCCOCCOCC(=O)N1CCC(CC(=O)ONC(=O)Cc2ccc(CCCCc3ccccc3)cc2)CC1 [Compound 117]
4.5-5,< 500 µg/mL,< 1000 µg/mL,COCCOCCOCCOCCOCCOCC(=O)N1CCC(OCC(=O)ONC(=O)Cc2ccc(CCCCc3ccccc3)cc2)CC1 [Compound 127]
4.5-5,< 500 µg/mL,< 1000 µg/mL,O=C(Cc1ccc(CCCCc2ccccc2)cc1)NOC(=O)CN1C(=O)OC[C@@H]1c1ccccc1 [Compound 52A]
4.5-5,< 500 µg/mL,< 1000 µg/mL,COCCOCC(=O)NCCCC[C@H](NC(=O)COCCOC)C(=O)ONC(=O)Cc1ccc(CCCCc2ccccc2)cc1 [Compound 70]
4.5-5,< 500 µg/mL,< 1000 µg/mL,COCCOCCOCC(=O)NCCC(=O)ONC(=O)Cc1ccc(CCCCc2ccccc2)cc1 [Compound 60]
4.5-5,,> 1000 µg/mL,COCCOCCOCCOCCOCC(=O)NCCCC[C@H](NC(=O)COCCOCCOCCOCCOC)C(=O)NCCCC(=O)ONC(=O)Cc1ccc(CCCCc2ccccc2)cc1 [Compound 102]
4.5-5,< 500 µg/mL,< 1000 µg/mL,CCNC(=O)ONC(=O)Cc1ccc(CCCCc2ccccc2)cc1 [Compound 74]
4.5-5,< 500 µg/mL,< 1000 µg/mL,CC(=O)OCC(=O)NCC[C@H](NC(=O)COC(C)=O)C(=O)NCCC(=O)ONC(=O)Cc1ccc(CCCCc2ccccc2)cc1 [Compound 151]
4.5-5,< 500 µg/mL,< 1000 µg/mL,COC(=O)NCCCC[C@H](NC(=O)OC)C(=O)NCCC(=O)ONC(=O)Cc1ccc(CCCCc2ccccc2)cc1 [Compound 155]
4.5-5,< 500 µg/mL,< 1000 µg/mL,COCCOCCOCC(=O)NC[C@H](NC(=O)COCCOCCOC)C(=O)NCCC(=O)ONC(=O)Cc1ccc(CCCCc2ccccc2)cc1 [Compound 143]
4.5-5,< 500 µg/mL,< 1000 µg/mL,COCCOCCOCCOCCOCC(=O)NCC[C@H](NC(=O)COCCOCCOCCOCCOC)C(=O)NCCC(=O)ONC(=O)Cc1ccc(CCCCc2ccccc2)cc1 [Compound 149]
,< 500 µg/mL,< 1000 µg/mL,"COCCOCCOCC(=O)NCC1(C(=O)ONC(=O)Cc2ccc(CCCCc3ccccc3)cc2)CC1 [Compound 55, 2-(2-(2-Methoxyethoxyl)ethoxy)-N-((1-((2-(4-(4-phenylbutyl)phenyl)acetamidooxy)carbonyl)cyclopropyl)methyl)acetamide]"
5.5-6,< 500 µg/mL,< 1000 µg/mL,COCCOCCOCC(=O)NCCN(CC(=O)NCCC(=O)ONC(=O)Cc1ccc(CCCCc2ccccc2)cc1)C(=O)COCCOCCOC [Compound 136]
,< 500 µg/mL,< 1000 µg/mL,CCC(=O)ONC(=O)Cc1ccc(CCCCc2ccccc2)cc1 [Compound 52E]

pH at 1.00 mg/mL of MGCD290 in saline,solubility at 1 h [1],solubility at 1 h [2],Structure (SMILES)
4.5-5,,> 1000 µg/mL,COCCOCCOCCOCCOCCOCC(=O)NCCCC[C@H](NC(=O)COCCOCCOCCOCCOCCOC)C(=O)NCCCC(=O)ONC(=O)Cc1ccc(CCCCc2ccccc2)cc1 [Compound 103]
4.5-5,< 500 µg/mL,< 1000 µg/mL,COCCOCCOCCOCCOCCOCC(=O)NCC[C@H](NC(=O)COCCOCCOCCOCCOCCOC)C(=O)NCCC(=O)ONC(=O)Cc1ccc(CCCCc2ccccc2)cc1 [Compound 150]
5.5-6,< 500 µg/mL,< 1000 µg/mL,COCCOCCOCCOCCOCC(=O)N1CCC(CCC(=O)ONC(=O)Cc2ccc(CCCCc3ccccc3)cc2)CC1 [Compound 113]
4.5-5,< 500 µg/mL,< 1000 µg/mL,COCCOCCOCC(=O)N1CCC(CC(=O)ONC(=O)Cc2ccc(CCCCc3ccccc3)cc2)CC1 [Compound 115]
4.5-5,< 500 µg/mL,< 1000 µg/mL,COCC(=O)NCCCC[C@H](NC(=O)COC)C(=O)NCCC(=O)ONC(=O)Cc1ccc(CCCCc2ccccc2)cc1 [Compound 67]
4.5-5,< 500 µg/mL,< 1000 µg/mL,COCCC(=O)NC[C@H](NC(=O)CCOC)C(=O)NCCC(=O)ONC(=O)Cc1ccc(CCCCc2ccccc2)cc1 [Compound 144]
4.5-5,< 500 µg/mL,< 1000 µg/mL,COCCOCC(=O)NC[C@H](NC(=O)COCCOC)C(=O)NCCC(=O)ONC(=O)Cc1ccc(CCCCc2ccccc2)cc1 [Compound 145]
4.5-5,< 500 µg/mL,< 1000 µg/mL,COCCOCC(=O)NCCCC[C@H](NC(=O)COCCOC)C(=O)N1CCC[C@H]1C(=O)ONC(=O)Cc1ccc(CCCCc2ccccc2)cc1 [Compound 108]
4.5-5,< 500 µg/mL,< 1000 µg/mL,CC(=O)NCCCC[C@H](NC(C)=O)C(=O)NCCC(=O)ONC(=O)Cc1ccc(CCCCc2ccccc2)cc1 [Compound 66]
,< 500 µg/mL,< 1000 µg/mL,O=C(Cc1ccc(CCCCc2ccccc2)cc1)NOC(=O)CC1CC1 [Compound 52C]
4.5-5,< 500 µg/mL,< 1000 µg/mL,CC(=O)OCC(=O)NCCCC[C@H](NC(=O)COC(C)=O)C(=O)NCCC(=O)ONC(=O)Cc1ccc(CCCCc2ccccc2)cc1 [Compound 154]
4.5-5,< 500 µg/mL,< 1000 µg/mL,CC(=O)OCC(=O)NC[C@H](NC(=O)COC(C)=O)C(=O)NCCC(=O)ONC(=O)Cc1ccc(CCCCc2ccccc2)cc1 [Compound 146]
5.-5.5,< 500 µg/mL,< 1000 µg/mL,"Cl.O=C(Cc1ccc(CCCCc2ccccc2)cc1)NOC(=O)CCCC1CCNCC1 [Compound 121, 2-(4-(4-phenylbutyl)phenyl)-N-(4-(piperidin-4-yl)butanoyloxy) acetamide hydrochloride]"
4.5-5,< 500 µg/mL,< 1000 µg/mL,COCCOCCOCC(=O)N1CCC(C(=O)ONC(=O)Cc2ccc(CCCCc3ccccc3)cc2)CC1 [Compound 119]
4.5-5,,> 1000 µg/mL,"Cl.O=C(Cc1ccc(CCCCc2ccccc2)cc1)NOC(=O)CCC(=O)N1CCNCC1 [Compound 123, N-(4-oxo-4-(piperazin-1-yl)butanoyloxy)-2-(4-(4-phenylbutyl)phenyl) acetamide hydrochloride]"
4.5-5,< 500 µg/mL,< 1000 µg/mL,COCCOCCOCCOCCOCCOCC(=O)NCC1(C(=O)ONC(=O)Cc2ccc(CCCCc3ccccc3)cc2)CC1 [Compound 57]
4.5-5,< 500 µg/mL,< 1000 µg/mL,COCCOCC(=O)NCCCC[C@H](NC(=O)COCCOC)C(=O)NCC1(C(=O)ONC(=O)Cc2ccc(CCCCc3ccccc3)cc2)CC1 [Compound 161]
4-4.5,< 500 µg/mL,< 1000 µg/mL,CN1CCN(C(=O)ONC(=O)Cc2ccc(CCCCc3ccccc3)cc2)CC1.Cl [Compound 45]

Structure (SMILES),pH at 1.00 mg/mL of MGCD290 in saline,solubility at 1 h [1],solubility at 1 h [2]
"NCCCC[C@H](N)C(=O)N1CCC[C@H]1C(=O)ONC(=O)Cc1ccc(CCCCc2ccccc2)cc1 [Compound 106, N-((S)-1-((S)-2,6-Diaminohexanoyl)pyrrolidine-2-carbonyloxy)-2-(4-(4-phenylbutyl)phenyl) acetamide dihydrochloride]",3.5-4,< 500 µg/mL,< 1000 µg/mL
